Our source for the TGI and GI50 values is PubChem BioAssay (NCI).

Usually TGI stands for the concentration giving total growth inhibition. Usually GI50 stands for the concentration at which growth is held to half of that of the control.

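In this assay, cells in 96-well plates receive the compound at five concentrations for 48 hours. Endpoints are linearly interpolated between the surrounding concentrations. GI50: concentration for 50% inhibition of growth. TGI: concentration producing complete growth inhibition.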

Test in all cases: DTP human tumour cell line panel, 48 h
Assay [1] relates to OVCAR-4 ovarian.
Assay [2] relates to SR leukemia.
Assay [3] has as its system IGROV1 ovarian.
Assay [4] deals with HCC-2998 colon.
Assay [5] deals with SNB-19 CNS.
In assay [6] the test system is HL-60(TB) leukemia.
Assay [7] has as its system HT29 colon.
Assay [8] concerns NCI-H460 lung.
In assay [9] the test system is MDA-MB-435.
The subject of assay [10] is MCF7 breast.
The test system of assay [11] is M14 melanoma.
The test system of assay [12] is A498 renal.
For assay [13], the system named is HCT-15 colon.
The subject of assay [14] is T-47D breast.

Take `CSc1nc2c(c(=O)n1C)N=C(c1ccc([N+](=O)[O-])cc1)CC(c1ccccc1)N2` (configuration not stated): the TGI in [1] is above 100 µM; in assay [2], above 100 µM; in [3], above 100 µM; in assay [4] it was above 100 µM; in assay [5], above 100 µM; in [6], 65.9 µM. Moreover, the TGI in assay [7], in [8], in assay [9], in [10], in assay [11] and in assay [12] was above 100 µM each time.

In the case of `Clc1ccc(CCN[C@H]2CCCC[C@H]2N2CCCC2)cc1Cl`, the TGI in assay [1] was 89.4 µM; in assay [2], above 100 µM; in assay [3] it was 35.1 µM; in assay [4], 22.3 µM; in [5], 69.5 µM; in [6], 50 µM. Further, the TGI in assay [7] was found to be 49.9 µM; in assay [8] it was 58.4 µM; in assay [9], 43.8 µM; in assay [10] it was 35.7 µM; in [13] it was 49.5 µM; in [11], 30.3 µM. Moreover, the TGI in assay [12] was 40.5 µM.

For `CC(C)CC(N)C(=O)Nc1ccc2ccccc2c1` (configuration not stated), the TGI was 54.5 µM in [1]; above 100 µM in assay [2]; above 100 µM in assay [3]; above 100 µM in assay [4]; above 100 µM in [5]; above 100 µM in assay [6]. The TGI in [7], in assay [10], in assay [13], in assay [14], in assay [11] and in assay [12] was above 100 µM each time.

For `O=C(N/N=C/c1cc(Br)cc(Br)c1[O-])c1ccccc1O.O=C(N/N=C/c1cc(Br)cc(Br)c1[O-])c1ccccc1O.[Zn+2]`, the TGI in assay [1] amounted to 1.5 µM; in assay [2], 4 µM; in assay [3], 5.55 µM; in assay [4], 3.42 µM; in assay [5], 12.2 µM; in assay [6], 0.547 µM. The TGI in assay [7] is 12.3 µM; in assay [8] it was 9.26 µM; in [13] it was 14.4 µM; in [11] it was 8.3 µM.

On to `CN(CCCNC(=O)c1cn(C)c2c1Cc1ccccc1-2)CCCNC(=O)c1cn(C)c2c1Cc1ccccc1-2`, for which the TGI in assay [1] was found to be 26.8 µM; in assay [2], 11.1 µM; in assay [3] it was 21.8 µM; in [5], 24.1 µM; in assay [6] it was 28.6 µM; in assay [7] it was 5.7 µM. In addition, the TGI in assay [8] came to 23.8 µM; in assay [9], 5.16 µM; in [10], 25.4 µM; in [13], 25.2 µM; in assay [11] it was 11.6 µM; in [12], 26.8 µM.

In the case of `Cc1ccc2c(=O)cc(-c3ccc(C)s3)[nH]c2n1`, the TGI is above 100 µM in [1]; above 100 µM in assay [2]; above 50.4 µM in [3]; 9.82 µM in [4]; above 100 µM in assay [5]; 0.607 µM in [6]. In addition, the TGI is above 100 µM in [8]; above 100 µM in assay [10]; above 37.5 µM in assay [13]; above 66.5 µM in [14]; 55.9 µM in [11]; above 70.9 µM in assay [12].

Regarding `CCOC(=O)c1c(NC(=S)Nc2ccc(Cl)cc2)sc2c1CCN(C)C2`, the TGI in [3], in assay [5], in [6], in [7], in assay [8] and in assay [10] was above 100 µM throughout. The TGI in assay [13], in assay [14], in assay [11] and in assay [12] was above 100 µM throughout.

`COc1cc(OC)cc(-c2cc(=O)c3cc4c(cc3[nH]2)OCO4)c1`: the TGI in [1] is above 96.1 µM; in [2], 9.54 µM; in assay [3], 18.2 µM; in assay [4] it was 0.787 µM; in assay [5] it was 72.5 µM; in assay [6], 0.714 µM. In addition, the TGI is above 100 µM in [7], 3.33 µM in assay [8], 22.8 µM in assay [13] and above 48.1 µM in assay [11].

Turning to `CC(=O)O[C@H]1C(=O)[C@@]2(C)[C@H]([C@H](OC(=O)c3ccccc3)[C@]3(O)C[C@H](OC(=O)[C@H](O)[C@@H](NC(=O)c4ccco4)c4ccccc4)C(C)=C1C3(C)C)[C@]1(OC(C)=O)CO[C@@H]1C[C@@H]2O`, the TGI in assay [1] was above 12.5 µM; in assay [2] it was above 12.5 µM; in assay [3], above 12.5 µM; in assay [5], above 12.5 µM; in assay [6], below 0.00125 µM; in assay [7] it was above 12.5 µM. Also, the TGI in assay [8], in [10], in assay [13], in assay [14], in assay [11] and in assay [12] was above 12.5 µM throughout.

For `COc1cc2c(c(OC)c1OC)-c1ccc(SC)c(=O)cc1[C@@H](O)CC2`, the GI50 in assay [1] was above 100 µM; in [2] it was 0.0667 µM; in assay [6] it was 6.13 µM; in [14], above 100 µM. For the same molecule, the TGI in [1] was above 100 µM; in [4], above 100 µM; in [7] it was 0.0703 µM; in assay [8], above 100 µM; in assay [10], above 100 µM; in assay [14], above 100 µM.

On to `Cc1cc(=O)oc2cc(OCC(O)COC(C)C)ccc12` (configuration not stated), for which the TGI in [1], in [2], in assay [3], in assay [4], in assay [5] and in assay [6] was above 100 µM in each case. Also, the TGI in assay [7], in assay [8], in [10], in assay [13], in assay [14] and in assay [11] was above 100 µM throughout.

`S=c1ncc2c([nH]1)C1c3ccccc3C2c2ccccc21`: the TGI in assay [1] is above 100 µM; in assay [2] it was above 100 µM; in [3] it was above 100 µM; in assay [5] it was above 100 µM; in assay [6] it was 70.3 µM; in [8], above 100 µM. In addition, the TGI in assay [13] and in [11] was above 100 µM throughout.

For the molecule `CC(Nc1ccc(Cl)c(Cl)c1)c1ccncc1` (configuration not stated), the TGI in assay [1] was above 100 µM; in [3], 50.7 µM; in assay [5], above 100 µM; in assay [7] it was 72.4 µM; in [8] it was 44 µM; in assay [9], above 100 µM. The TGI in assay [10] was above 100 µM; in assay [13], above 100 µM; in assay [14], above 100 µM; in assay [11] it was 68.2 µM; in [12], 61 µM.

Regarding `Cn1c2ccccc2c(=O)c2c(O)cc3c(c21)C=CC(C)(C)O3`, the TGI in assay [1] is above 25 µM; in assay [3], above 25 µM; in assay [4], above 25 µM; in assay [5], above 25 µM; in [6] it was above 20.1 µM; in [7], above 25 µM. Further, the TGI in [8], in assay [10], in assay [13] and in assay [12] was above 25 µM throughout.

As for `Nc1ncnc2c1ncn2C1CCC(CP(=O)(O)O)C1` (configuration not stated), the TGI in assay [1], in [3], in assay [4], in assay [5], in assay [6] and in assay [7] was above 100 µM each time. The concentration for total growth inhibition (TGI) in assay [8], in assay [9], in assay [10], in assay [13], in [14] and in assay [11] was above 100 µM in each case.

On to `CC1C2C=C(O)C(=O)C(C2=O)C1c1ccccc1` (configuration not stated), for which the concentration for total growth inhibition (TGI) in assay [1], in assay [2], in assay [3], in assay [4], in [5] and in assay [7] was above 100 µM in each case. Besides, the TGI in assay [13], in assay [11] and in [12] was above 100 µM throughout.

As for `Cc1cccc2sc(-c3ccc(O)cc3)nc12`, the TGI in [1] worked out at 29.5 µM; in assay [2], 47.3 µM; in assay [3] it was 29.2 µM; in assay [5] it was 31.8 µM; in [6], 40.8 µM; in assay [7], 28.7 µM. Further, the TGI was found to be 33.3 µM in [8]; 26.8 µM in [9]; 26.9 µM in assay [10]; 26 µM in assay [13]; 28.5 µM in assay [11]; 20.4 µM in assay [12].

With `Cn1cc2ccccc2c1-c1nc(F)nc(Oc2ccc3c(c2)CC[C@@H]2C3CC[C@@]3(C)C2C[C@H](O)[C@@H]3O)n1` (some centres not stated), the TGI amounted to 45.4 µM in assay [3]; 29.9 µM in assay [4]; 29.5 µM in assay [5]; 43.7 µM in [6]; 40.5 µM in [7]; 83 µM in [8]. Besides, the TGI turned out to be 24.6 µM in assay [13], 32.2 µM in [11] and 47 µM in assay [12].

In the case of `CCCCCCCCCOCC(COP(=O)([O-])OCC[N+](C)(C)C)OC` (configuration not stated), the TGI in [1], in assay [3], in assay [4], in [5], in [6] and in assay [7] was above 100 µM throughout. Also, the TGI in assay [8], in assay [10], in assay [13] and in [12] was above 100 µM throughout.

For the molecule `CCOC(=O)CC(NC(=O)c1[nH]cnc1/N=N/N(C)C)C(=O)OCC` (configuration not stated), the TGI in [1], in assay [2], in assay [3], in assay [4], in assay [5] and in [6] was above 100 µM in each case. For the same molecule, the concentration for total growth inhibition (TGI) in [7], in [8], in [13], in assay [11] and in assay [12] was above 100 µM each time.

With `CC(C)C1NC(=O)CC(c2ccccc2)N(N=O)C1c1ccccc1` (configuration not stated), the TGI in [1], in assay [3], in [4], in [5], in [6] and in assay [7] was above 100 µM in each case. Further, the total growth inhibition concentration (TGI) in [8], in assay [10], in assay [13] and in assay [12] was above 100 µM throughout.

Regarding `CC(=O)OCC(=O)OC[C@H](OCc1ccccc1)[C@@H]1[C@H](OC(C)=O)C(=O)N1Cc1ccccc1`, the TGI in assay [1], in assay [2], in assay [3], in [5], in assay [7] and in [9] was above 100 µM throughout. Further, the TGI in [10], in [13], in [11] and in assay [12] was above 100 µM in each case.

`COc1cc(C2(c3ncc[nH]3)SSSCC2O)ccc1O` (configuration not stated): the TGI in assay [1] is above 63.7 µM; in assay [3], above 100 µM; in [4], 77 µM; in assay [5], above 100 µM; in assay [6] it was above 67.9 µM; in assay [7] it was above 100 µM. Also, the TGI is above 74.7 µM in assay [8], above 100 µM in assay [10], above 100 µM in assay [13] and above 100 µM in assay [12].

On to `CSCSCC(CO)NC(=O)/C(C)=C\c1c(C)[nH]c(=O)[nH]c1=O` (configuration not stated), for which the concentration for total growth inhibition (TGI) in [1], in assay [3], in assay [4], in [5], in assay [6] and in assay [7] was above 250 µM throughout. Besides, the TGI in [8], in [10], in [13] and in assay [12] was above 250 µM each time.
